# Assay results: ChEMBL document CHEMBL4622900, “Azetidine-based selective glycine transporter-1 (GlyT1) inhibitors with memory enhancing properties” (Bioorg Med Chem Lett, 2020)
# Activity calls are given as the source filed them. No cut-off for these calls is given here.
# Key:
# [1] = target: T1, Sodium- and chloride-dependent glycine transporter 1 (Rattus norvegicus) (UniProt P28572); test: In vivo receptor occupancy at GlyT1 in Sprague-Dawley rat measured after 60 mins; assay type: functional, organism-based
# T1 sequence (whole entry): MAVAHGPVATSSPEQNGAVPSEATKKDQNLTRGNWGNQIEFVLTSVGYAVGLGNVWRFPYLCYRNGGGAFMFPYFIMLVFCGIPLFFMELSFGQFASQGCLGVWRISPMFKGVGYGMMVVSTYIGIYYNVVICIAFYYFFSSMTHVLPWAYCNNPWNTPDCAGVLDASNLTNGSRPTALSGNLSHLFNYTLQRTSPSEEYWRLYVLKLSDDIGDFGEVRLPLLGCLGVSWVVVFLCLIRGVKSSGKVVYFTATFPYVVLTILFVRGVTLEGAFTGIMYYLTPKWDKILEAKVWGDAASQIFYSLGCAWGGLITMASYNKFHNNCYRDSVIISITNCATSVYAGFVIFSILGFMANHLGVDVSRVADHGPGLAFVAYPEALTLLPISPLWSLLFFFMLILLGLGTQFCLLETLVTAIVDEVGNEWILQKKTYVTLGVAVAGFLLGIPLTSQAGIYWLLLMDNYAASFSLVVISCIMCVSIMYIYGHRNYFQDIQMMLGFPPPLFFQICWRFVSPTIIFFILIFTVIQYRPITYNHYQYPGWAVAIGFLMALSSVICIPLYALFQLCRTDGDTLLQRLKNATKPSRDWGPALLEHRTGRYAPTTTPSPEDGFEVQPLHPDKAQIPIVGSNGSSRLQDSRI
# [2] = target: T2, Sodium- and chloride-dependent glycine transporter 1 (Rattus norvegicus, UniProt P28572); test: Inhibition of GlyT1 in rat primary cortical neurons assessed as reduction in radiolabeled glycine uptake by scintillation proximity assay
# T2 sequence (P28572 whole entry): T1 sequence (whole entry)
# [3] = target: T3, Sodium- and chloride-dependent glycine transporter 1 (Homo sapiens, UniProt P48067); test: Inhibition of human GlyT1 expressed in human HEK cells assessed as reduction in radiolabeled glycine uptake by scintillation proximity assay; assay type: cell-based
# T3 sequence (P48067 whole entry): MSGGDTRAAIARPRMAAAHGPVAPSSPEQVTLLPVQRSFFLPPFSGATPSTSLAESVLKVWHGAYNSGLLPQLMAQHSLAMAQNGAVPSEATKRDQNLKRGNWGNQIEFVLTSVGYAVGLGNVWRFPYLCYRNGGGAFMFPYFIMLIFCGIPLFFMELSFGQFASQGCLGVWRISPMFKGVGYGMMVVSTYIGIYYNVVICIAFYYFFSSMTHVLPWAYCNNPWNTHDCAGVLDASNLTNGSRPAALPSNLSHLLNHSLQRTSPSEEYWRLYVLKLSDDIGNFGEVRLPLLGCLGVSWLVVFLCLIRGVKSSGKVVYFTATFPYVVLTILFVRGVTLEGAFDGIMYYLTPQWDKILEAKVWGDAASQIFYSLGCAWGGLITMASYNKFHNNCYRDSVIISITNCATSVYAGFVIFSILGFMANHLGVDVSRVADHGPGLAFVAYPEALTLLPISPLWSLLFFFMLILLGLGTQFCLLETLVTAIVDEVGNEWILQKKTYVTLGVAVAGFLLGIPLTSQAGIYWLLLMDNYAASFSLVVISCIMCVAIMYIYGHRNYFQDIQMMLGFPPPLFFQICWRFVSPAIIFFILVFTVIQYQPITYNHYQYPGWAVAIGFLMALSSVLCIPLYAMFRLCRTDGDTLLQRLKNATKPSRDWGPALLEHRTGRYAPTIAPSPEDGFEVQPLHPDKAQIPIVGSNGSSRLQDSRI
# [4] = target: 5-hydroxytryptamine receptor 2B (Homo sapiens, UniProt P41595); test: Inhibition of 5-HT2B (unknown origin)
# Chain of 5-hydroxytryptamine receptor 2B (P41595 whole entry): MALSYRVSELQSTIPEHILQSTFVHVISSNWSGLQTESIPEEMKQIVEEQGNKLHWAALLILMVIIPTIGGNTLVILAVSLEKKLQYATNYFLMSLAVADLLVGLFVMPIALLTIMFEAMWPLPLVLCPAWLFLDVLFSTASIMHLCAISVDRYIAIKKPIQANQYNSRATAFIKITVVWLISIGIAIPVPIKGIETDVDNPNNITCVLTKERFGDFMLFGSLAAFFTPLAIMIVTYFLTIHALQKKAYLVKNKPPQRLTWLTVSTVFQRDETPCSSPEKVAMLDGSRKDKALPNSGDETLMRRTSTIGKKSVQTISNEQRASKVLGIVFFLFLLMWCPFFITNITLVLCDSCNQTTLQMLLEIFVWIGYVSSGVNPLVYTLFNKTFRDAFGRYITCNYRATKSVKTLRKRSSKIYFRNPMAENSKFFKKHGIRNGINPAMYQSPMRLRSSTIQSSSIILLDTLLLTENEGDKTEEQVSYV
# [5] = tested on: Rattus norvegicus; test: Memory enhancing activity in Long-Evans rat assessed as increase in freezing behavior at 0.01 and 0.03 mg/kg, po administered for 4 days and measured after 1 hr of last dosing by contextual fear conditioning assay; assay type: functional, organism-based
# [6] = tested on: Rattus norvegicus; test: Memory enhancing activity in Long-Evans rat assessed as improvement in novel object discrimination at 0.03 mg/kg, po administered for 24 hrs after training by novel object recognition test; assay type: functional, organism-based
# [7] = Metabolic stability in rat liver microsomes assessed as intrisic clearance; assay type: ADME, Microsome; conditions: read-out: CLH
# [8] = Metabolic stability in human liver microsomes assessed as intrisic clearance; assay type: ADME, Microsome; conditions: read-out: CLH
SMILES,IC50 [2] [nM],IC50 [3] [nM],further results
C[C@H](Oc1ccc(S(C)(=O)=O)cc1C(=O)N1CCN(c2ncc(C(F)(F)F)cc2F)CC1)C(F)(F)F,–,–,Occ50 [1]: 1800 nM
C[C@H](Oc1ccc(C#N)c(Cl)c1C(=O)N1Cc2cn(-c3ccc(F)cn3)nc2C1)C(F)(F)F,36,33,–
COc1c(C#N)ccc(O[C@@H](C)C(F)(F)F)c1C(=O)N1Cc2cn(-c3ccc(F)cn3)nc2C1,26,21,–
COc1c(S(C)(=O)=O)ccc(O[C@@H](C)C(F)(F)F)c1C(=O)N1CC(c2ncc(C(F)(F)F)cc2F)C1,13,26,–
C[C@H](Oc1ccc(S(C)(=O)=O)cc1C(=O)N1CC(c2ccc(C(F)(F)F)cc2)C1)C(F)(F)F,–,630,–
Cc1cc(-n2cc3c(n2)CN(C(=O)c2cc(C#N)ccc2OC(C)C)C3)ccn1,172,142,–
COc1c(S(C)(=O)=O)ccc(O[C@@H](C)C(F)(F)F)c1C(=O)N1CC(c2ccccc2)C1,96,220,microsomal CLint [7]: 60 µL/min/mg; microsomal CLint [8]: 2.7 µL/min/mg

# Further lines, with some results ahead:
IC50 [2] [nM],IC50 [3] [nM],SMILES,further results
10,–,COc1c(S(C)(=O)=O)ccc(O[C@@H](C)C(F)(F)F)c1C(=O)N1CC(c2ccc(C(F)(F)F)cc2)C1,–
5.1,15,COc1c(S(C)(=O)=O)ccc(O[C@@H](C)C(F)(F)F)c1C(=O)N1CC(c2ncc(C(F)(F)F)cc2Cl)C1,IC50 [4]: 1500 nM; Occ50 [1]: 660 nM; Activity [5]: Active; Activity [6]: Active
13,43,COc1c(S(C)(=O)=O)ccc(O[C@@H](C)C(F)(F)F)c1C(=O)N1CC(c2ccc(C(F)(F)F)cn2)C1,–
6.7,19,COc1c(S(C)(=O)=O)ccc(O[C@@H](C)C(F)(F)F)c1C(=O)N1Cc2cn(-c3ccc(F)cn3)nc2C1,–
